Test results reported in patent US10407691B2 (priority 2014, dated 2019).
Entries after “also recorded” stand apart in the source; their conditions may differ. Non-standard residues stand in square brackets, D forms with d. Residues, ends and D or L forms follow the SMILES beside them. sY = N[C@@H](Cc1ccc(OS(=O)(=O)O)cc1)C(=O)O

Columns and labels:
Arabidopsis seedlings [1] = system: Arabidopsis seedlings; parameters: species or system Arabidopsis thaliana; conditions: in vivo
XA21 [2] = target: T1, XA21 (Oryza sativa subsp. indica, UniProt Q1MX30); type: cell-based, Oryza sativa ssp. japonica
T1 sequence (Q1MX30 24-1025 limits assumed): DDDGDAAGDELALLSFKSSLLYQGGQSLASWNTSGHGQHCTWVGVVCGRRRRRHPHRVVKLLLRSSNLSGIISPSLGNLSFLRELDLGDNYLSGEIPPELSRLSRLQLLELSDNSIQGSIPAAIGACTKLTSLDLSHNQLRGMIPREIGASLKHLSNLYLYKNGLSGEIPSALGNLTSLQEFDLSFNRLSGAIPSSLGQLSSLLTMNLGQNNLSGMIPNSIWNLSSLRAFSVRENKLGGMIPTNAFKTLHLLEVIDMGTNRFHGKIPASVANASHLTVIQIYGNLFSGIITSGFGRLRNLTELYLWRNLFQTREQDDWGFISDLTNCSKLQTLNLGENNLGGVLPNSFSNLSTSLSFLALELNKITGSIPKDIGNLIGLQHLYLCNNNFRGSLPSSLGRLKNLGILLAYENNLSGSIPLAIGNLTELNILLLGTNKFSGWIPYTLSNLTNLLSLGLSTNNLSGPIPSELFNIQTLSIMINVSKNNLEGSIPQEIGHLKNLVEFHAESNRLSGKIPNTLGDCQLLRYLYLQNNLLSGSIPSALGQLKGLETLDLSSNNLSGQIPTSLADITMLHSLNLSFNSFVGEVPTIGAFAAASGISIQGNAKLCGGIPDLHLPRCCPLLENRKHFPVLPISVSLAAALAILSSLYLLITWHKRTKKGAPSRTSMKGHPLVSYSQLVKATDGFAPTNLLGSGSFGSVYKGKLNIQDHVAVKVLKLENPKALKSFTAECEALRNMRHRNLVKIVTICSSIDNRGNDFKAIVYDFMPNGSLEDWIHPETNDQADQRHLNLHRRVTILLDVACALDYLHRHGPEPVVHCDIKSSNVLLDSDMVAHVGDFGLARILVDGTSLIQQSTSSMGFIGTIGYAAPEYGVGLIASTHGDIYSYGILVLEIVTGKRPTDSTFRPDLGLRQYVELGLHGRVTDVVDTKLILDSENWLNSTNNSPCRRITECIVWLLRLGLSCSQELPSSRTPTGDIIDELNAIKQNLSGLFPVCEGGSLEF

rice seedlings = system: rice seedlings; parameters: species or system Oryza sativa sp. japonica; conditions: in vivo
XA21 [3] = target: T1, XA21; assay: cell-based; type: cell-based, Oryza sativa ssp. japonica
Arabidopsis seedlings [4] = system: Arabidopsis seedlings; parameters: species or system Arabidopsis thaliana; conditions: in vivo; remark: listed apart in the source
tpst-1 seedlings = system: tpst-1 seedlings; parameters: species or system Arabidopsis thaliana; conditions: in vivo
XA21 [5] = target: T1, XA21; type: cell-based, Oryza sativa ssp. japonica; remark: listed apart in the source

## CC(C)[C@H](NC(=O)[C@@H](N)Cc1c[nH]cn1)C(=O)NCC(=O)NCC(=O)NCC(=O)N[C@@H](CC(=O)O)C(=O)N[C@@H](Cc1ccc(OS(=O)(=O)O)cc1)C(=O)N1CCC[C@H]1C(=O)N1CCC[C@H]1C(=O)N1CCC[C@H]1C(=O)NCC(=O)N[C@@H](C)C(=O)N[C@@H](CC(N)=O)C(=O)N1CCC[C@H]1C(=O)N[C@@H](CCCCN)C(=O)N[C@@H](Cc1c[nH]cn1)C(=O)N[C@@H](CC(=O)O)C(=O)N1CCC[C@H]1C(=O)N1CCC[C@H]1C(=O)N1CCC[C@H]1C(=O)N[C@@H](CCCNC(=N)N)C(=O)O [RaxX21-sY, HVGGGDY^SPPPGANPKHDPPPR] (H-HVGGGD[sY]PPPGANPKHDPPPR-OH)
Arabidopsis seedlings [1]
  effect on elf18-triggered growth inhibition: do not prevent elf18-triggered growth inhibition
XA21 [2]
  defense gene expression: significant RaxX21-sY-mediated upregulation of defense gene expression and ROS production; also recorded: activates gene expression
  defense gene induction (Os06g37224): induced ROS production and defense gene expression changes
  defense marker gene expression (Os04g10100, PR10b, Os12g36830, Os06g37224), temporal changes: able to activate; also recorded: sufficient to activate XA21-mediated defense gene expression
Rice seedlings
  root growth: significantly enhanced root growth; also recorded: promotes root growth in Arabidopsis and rice
  root length: significantly longer roots
XA21 [3]
  ROS production: significant RaxX21-sY-mediated upregulation of defense gene expression and ROS production; also recorded: induced ROS production and defense gene expression changes; also recorded: activates the production of ROS
  ROS production over 90 min: triggered a ROS response characteristic of the XA21-mediated immune response
  XA21-mediated defense responses (ability to activate XA21-dependent signaling): trigger XA21-mediated defense responses
  total ROS production over 3 h: retained the ability to induce XA21-dependent signaling; also recorded: able to activate
Arabidopsis seedlings [4]
  average root length: 61 mm
  dose dependent activity on root growth: effective at inducing root growth at concentrations in the low nanomolar range
  root growth promotion: promoted root growth in a similar manner to that observed for AtPSY1; also recorded: promotes root growth in Arabidopsis and rice
  root length: statistically longer root lengths
tpst-1 seedlings
  root growth rate: increased root growth rate
XA21 [5]
  ethylene production: able to activate

## CC(C)C[C@H](N)C(=O)N[C@@H](Cc1c[nH]c2ccccc12)C(=O)N[C@@H](CCCCN)C(=O)N[C@@H](Cc1c[nH]cn1)C(=O)N[C@H](C(=O)NCC(=O)NCC(=O)NCC(=O)N[C@@H](CC(=O)O)C(=O)N[C@@H](Cc1ccc(OS(=O)(=O)O)cc1)C(=O)N1CCC[C@H]1C(=O)N1CCC[C@H]1C(=O)N1CCC[C@H]1C(=O)NCC(=O)N[C@@H](C)C(=O)N[C@@H](CC(N)=O)C(=O)N1CCC[C@H]1C(=O)N[C@@H](CCCCN)C(=O)N[C@@H](Cc1c[nH]cn1)C(=O)N[C@@H](CC(=O)O)C(=O)N1CCC[C@H]1C(=O)N1CCC[C@H]1C(=O)N1CCC[C@H]1C(=O)N[C@@H](CCCNC(=N)N)C(=O)O)C(C)C [RaxX24-sY]
XA21 [3]
  EC50: ~30 nM
  XA21-mediated defense responses (ability to activate XA21-dependent signaling): trigger XA21-mediated defense responses
  total ROS production over 3 h: confirmed

## CC(C)C[C@H](NC(=O)[C@H](CCCNC(=N)N)NC(=O)[C@H](CCC(N)=O)NC(=O)[C@H](CC(=O)O)NC(=O)[C@H](CC(C)C)NC(=O)[C@@H]1CCCN1C(=O)[C@H](CCC(=O)O)NC(=O)[C@@H]1CCCN1C(=O)[C@H](CCCNC(=N)N)NC(=O)CNC(=O)[C@@H](N)CCCCN)C(=O)N[C@@H](Cc1c[nH]c2ccccc12)C(=O)N[C@@H](CCCCN)C(=O)N[C@@H](Cc1c[nH]cn1)C(=O)N[C@H](C(=O)NCC(=O)NCC(=O)NCC(=O)N[C@@H](CC(=O)O)C(=O)N[C@@H](Cc1ccc(OS(=O)(=O)O)cc1)C(=O)N1CCC[C@H]1C(=O)N1CCC[C@H]1C(=O)N1CCC[C@H]1C(=O)NCC(=O)N[C@@H](C)C(=O)N[C@@H](CC(N)=O)C(=O)N1CCC[C@H]1C(=O)N[C@@H](CCCCN)C(=O)N[C@@H](Cc1c[nH]cn1)C(=O)N[C@@H](CC(=O)O)C(=O)N1CCC[C@H]1C(=O)N1CCC[C@H]1C(=O)N1CCC[C@H]1C(=O)N[C@@H](CCCNC(=N)N)C(=O)N[C@@H](CC(N)=O)C(=O)N1CCC[C@H]1C(=O)NCC(=O)N[C@@H](Cc1c[nH]cn1)C(=O)N[C@@H](Cc1c[nH]cn1)C(=O)O)C(C)C [RaxX39-sY]
XA21 [2]
  defense gene expression (PR10b and Os06g37224): triggers defense gene expression in an XA21-dependent manner; also recorded: activates XA21-mediated defense gene expression
XA21 [3]
  XA21-mediated defense responses (ability to activate XA21-dependent signaling): trigger XA21-mediated defense responses

## DY^SGDPSANPKHDPGVPPS [AtPSY1, reference compound]
Arabidopsis seedlings [1]
  effect on elf18-triggered growth inhibition: do not prevent elf18-triggered growth inhibition
Rice seedlings
  root growth: significantly enhanced root growth
XA21 [3]
  ROS production over 90 min: failed to induce ROS production
Arabidopsis seedlings [4]
  dose dependent activity on root growth: less active than RaxX21-sY and PSK
  root growth: increased root growth in a similar manner to that observed for treatment of wild type Col-0 seedlings; also recorded: also responds
tpst-1 seedlings
  root growth rate: increased root growth rate

## DY^SPAPGANPRHNPKRPPG [OsPSY1a, reference compound]
XA21 [3]
  ROS production over 90 min: failed to induce ROS production

## DY^SPPPGANPKHDP [RaxX13-sY]
Rice seedlings
  root growth: still capable of promoting root growth
XA21 [3]
  ROS production over 90 min: did not induce ROS production
Arabidopsis seedlings [4]
  root growth promotion: still capable of promoting root growth

## DY^SPPPGANPKHDPPPR [RaxX16-sY]
Rice seedlings
  root growth: still capable of promoting root growth
XA21 [3]
  ROS production over 90 min: triggered a ROS response characteristic of the XA21-mediated immune response; also recorded: able to recognize
Arabidopsis seedlings [4]
  root growth promotion: still capable of promoting root growth

## HVGGGDYPPPGANPKHDPPPR [RaxX21-Y]
Arabidopsis seedlings [4]
  dose dependent activity on root growth: promoted root growth, but was less active than the sulfated version
XA21 [5]
  ethylene production: not

## KGRPEPLDQRLWKHVGGGDYPPPGANPKHDPPPRNPGHH [RaxX39-Y]
XA21 [2]
  defense gene expression (PR10b and Os06g37224): does not

## LWKHVGGGDYPPPGANPK [RaxX18-sY]
XA21 [3]
  ROS production dose response (activity): completely inactive
  XA21-mediated defense responses (ability to activate XA21-dependent signaling): do not
  total ROS production over 3 h: compromised in this activity

## LWKHVGGGDY^SAPPGSNDRHDPPKP [RaxX24-Xcm-sY]
Arabidopsis seedlings [4]
  root growth promotion: promoted root growth on Arabidopsis seedlings in a manner similar to that of RaxX21-sY

## LWKHVGGGDY^SPPPGANTKHDPPPK [RaxX24-Xe-sY]
Arabidopsis seedlings [4]
  root growth promotion: promoted root growth on Arabidopsis seedlings in a manner similar to that of RaxX21-sY

## LWKHVGGGDY^SPPSGPNTKHDPPPP [RaxX24-Xoc-sY]
Arabidopsis seedlings [4]
  root growth promotion: promoted root growth on Arabidopsis seedlings in a manner similar to that of RaxX21-sY; also recorded: still capable of inducing root growth

## Y^SIY^STQ [PSK, reference compound]
Arabidopsis seedlings [1]
  effect on elf18-triggered growth inhibition: attenuates elf18-mediated growth inhibition
XA21 [3]
  ROS production over 90 min: failed to activate XA21-mediated immune response
Arabidopsis seedlings [4]
  dose dependent activity on root growth: comparable
